# US8728754B1, “Use of proteins isolated from Pseudomonas to control molluscs” (priority 2013, dated 2014)
# Key:
# [1] = tested on: mussels; assay: Mussel bioassay in scintillation vials; assay type: in vivo
# Protocol: Mussel bioassays were performed in twenty milliliter scintillation vials. Ten small mussels (approximately 1 cm long) were incubated in the mussel water (10 mL) for 24 hr first, then the mussel water (10 mL) was changed freshly before test cell lysis was added. Cell lysis or proteins (maximal 500 μL) was added into each vial. After 24 hr, the mussel water with cell lysis or proteins was changed with clean mussel water. Then, mussel water was changed every 24 hr with clean mussel water. Dead mussels were taken away every day and mussel mortality was calculated by number of dead mussel divided by the number of total mussels.
# [2] = tested on: CL145A (ATCC 55799); assay: Antibiotic resistance profile (antibiotic discs on Mueller-Hinton Agar); conditions: for Suppresses growth of CL145A: 25° C., 72 hours; for CL145A resistant or sensitive to the antibiotic: antibiotic disc, 72 hours incubation
# Protocol: One glycerol stock vial of CL145A was equally distributed onto Mueller-Hinton Agar plates (100 μl per plate) and spread on the plate using a sterile cell spreader. Antibiotic discs were then placed onto the plates along with a blank sterile disc. Plates were incubated at 25° C. in the dark for 72 hours.
compound,measurement,setting,value
fumarate hydratase Class II (or fumarase) [Protein B],Mussel mortality at 7th day,"[1]; 4 ppm, 7th day",60%
same,Activity in mussel bioassay of proteins and fractions dosed after gel analysis,[1]; in vivo,active
Sulphamethoxazole-Trimethoprim,Suppresses growth of CL145A,[2]; 23.75/25 μg disc,Yes
same,CL145A resistant or sensitive to the antibiotic,[2],sensitive
CC[C@H]1OC(=O)[C@H](C)[C@@H](O[C@H]2C[C@@](C)(OC)[C@@H](O)[C@H](C)O2)[C@H](C)[C@@H](O[C@@H]2O[C@H](C)C[C@H](N(C)C)[C@H]2O)[C@](C)(O)C[C@@H](C)C(=O)[C@H](C)[C@@H](O)[C@]1(C)O [Erythromycin],Suppresses growth of CL145A,[2]; 15 μg disc,No
same,CL145A resistant or sensitive to the antibiotic,[2],resistant
CC1(C)S[C@@H]2[C@H](NC(=O)[C@H](N)c3ccccc3)C(=O)N2[C@H]1C(=O)O [Ampicillin],Suppresses growth of CL145A,[2]; 10 μg disc,No
same,CL145A resistant or sensitive to the antibiotic,[2],resistant
CO/N=C(\C(=O)N[C@@H]1C(=O)N2C(C(=O)O)=C(COC(N)=O)CS[C@H]12)c1ccco1 [Cefuroxime],Suppresses growth of CL145A,[2]; 30 μg disc,No
same,CL145A resistant or sensitive to the antibiotic,[2],resistant
Penicillin,Suppresses growth of CL145A,[2]; 10 μg disc,No
same,CL145A resistant or sensitive to the antibiotic,[2],resistant
Gentamicin,Suppresses growth of CL145A,[2]; 10 μg disc,Yes
same,CL145A resistant or sensitive to the antibiotic,[2],sensitive
CCN1CCN(C(=O)N[C@@H](C(=O)N[C@@H]2C(=O)N3[C@@H]2SC(C)(C)[C@@H]3C(=O)O)c2ccccc2)C(=O)C1=O [Piperacillin],Suppresses growth of CL145A,[2]; 100 μg disc,Yes
same,CL145A resistant or sensitive to the antibiotic,[2],sensitive
[H]/N=C(/N)N[C@H]1[C@H](O)[C@@H](O)[C@H](O[C@@H]2O[C@@H](C)[C@](O)(C=O)[C@H]2O[C@@H]2O[C@@H](CO)[C@H](O)[C@@H](O)[C@@H]2NC)[C@@H](N/C(N)=N\[H])[C@@H]1O [Streptomycin],Suppresses growth of CL145A,[2]; 10 μg disc,No
same,CL145A resistant or sensitive to the antibiotic,[2],resistant
O=C(N[C@H](CO)[C@H](O)c1ccc([N+](=O)[O-])cc1)C(Cl)Cl [Chloramphenicol],Suppresses growth of CL145A,[2]; 30 μg disc,No
same,CL145A resistant or sensitive to the antibiotic,[2],resistant
